The values that follow are results of earlier work, collected in patent US20080003219A1, “DELIVERY OF AN OCULAR AGENT” (MINU, L.L.C., priority 2005, published 2008).

The subject of data set [1] is chronic myeloid leukemia (CML). The following applies: CML patients who initially respond.
Data set [2] relates to neovascular age-related macular degeneration. The following applies: 1 mg single intravitreal injection.
The subject of data set [3] is choroidal neovascularization. The following applies: intravitreal injection in combination with verteporfin PDT, compared with PDT only.

With `Cc1ccc(NC(=O)c2ccc(CN3CCN(C)CC3)cc2)cc1Nc1nccc(-c2cccnc2)n1` [imatinib], in data set [1], the “initially responding CML patients who subsequently develop drug resistance” value was “about 10%”.
As for bevacizumab, the observed inflammation result in data set [2] was “no observed inflammation”. In addition, in data set [2] (after one week), the subretinal fluid entry is given as “resolution of subretinal fluid after one week”. Besides, in data set [2] (duration of improvement), the macular appearance entry is given as “improved macular appearance maintained for at least four weeks”.

B1: ranibizumab (antibody, chains of the INN, looked up, V domains shown)
VH: EVQLVESGGGLVQPGGSLRLSCAASGYDFTHYGMNWVRQAPGKGLEWVGWINTYTGEPTYAADFKRRFTFSLDTSKSTAYLQMNSLRAEDTAVYYCAKYPYYYGTSHWYFDVWGQGTLVTVSS
VL: DIQLTQSPSSLSASVGDRVTITCSASQDISNYLNWYQQKPGKAPKVLIYFTSSLHSGVPSRFSGSGSGTDFTLTISSLQPEDFATYYCQQYSTVPWTFGQGTKVEIK
modifications: Fab
Turning to B1, the “reduction in angiographic leakage” value in data set [3] is on record as “greater reduction in angiographic leakage than PDT only”.
